Patent US20060014673A1 (priority 1998, published 2006)
Read-outs that look alike come from different tables or passages of the source.

Legend:
[1] = system: Primary cultures of neonatal rat cortex; assay type: cell-based
[2] = system: Primary cultures of neonatal rat cortex; assay type: cell-based; remark: listed apart in the source

Compound	effect on intracellular calcium ([1]; depolarized conditions (aconitine), substance alone)	effect on intracellular calcium [2]	potency in non-depolarized compared with depolarized cultures [2]	effect on intracellular calcium [1]
Nc1ccncc1 [4-AP, 4-aminopyridine]	induces an increase in intracellular calcium	significant effect	slightly less potent	
dendrotoxin				caused an increase in intracellular calcium
